According to US20060019284A1, “Identification of polynucleotides for predicting activity of compounds that interact with and/or modulate protein tyrosine kinases and/or protein tyrosine kinase pathways in lung cancer cells” (priority 2004, published 2006):

Assays:
[1] = test system: Sk-LU-1 lung cell line; assay: In vitro cytotoxicity assay (MTS), IC50 determination; type: cell-based, human; details: Sk-LU-1 cells
Method: (§1) Cytotoxicity was assessed in cells by the MTS (3-(4,5-dimethylthiazol-2-yl)-5-(3-carboxy-methoxyphenyl)-2-(4-sulphenyl)-2H-tetrazolium, inner salt) assay (T. L. Riss et al., 1992, Mol. Biol. Cell, 3 (Suppl.): 184a).
(§2) To carry out the assays, the lung cells were plated at 4,000 cells/well in 96 well microtiter plates, and 24 hours later, serially diluted drugs were added. The concentration range for the protein tyrosine kinase inhibitor compound BMS-A used in the cytotoxicity assay was from 5 μg/ml to 0.0016 μg/ml (roughly 10 μM to 0.0032 μM).
(§3) The cells were incubated at 37° C. for 72 hours at which time the tetrazolium dye, MTS (333 μg/ml final concentration), in combination with the electron coupling agent phenazine methosulfate (25 μM final concentration), was added. A dehydrogenase enzyme in live cells reduces the MTS to a form that absorbs light and can be quantified spectrophotometrically at 492 nM. The greater the absorbency the greater the number of live cells. The results are expressed as an IC50, which is the drug concentration required to inhibit cell proliferation (i.e. absorbance at 492 nm) to 50% of that of untreated control cells. The mean IC50 and standard deviation (SD) from multiple tests for each cell line were calculated.
(§4) The mean IC50 of the BMS-A protein tyrosine kinase inhibitor compound across the 23 human lund cell lines was calculated. […]

[2] = test system: L2987 lung cell line; assay: as above; type: cell-based, human; details: L2987 cells
Method: as §1, §2, §3, §4

[3] = test system: H226 lung cell line; assay: as above; type: cell-based, human; details: H226 cells
Method: as §1, §2, §3, §4

[4] = test system: H838 lung cell line; assay: as above; type: cell-based, human; details: H838 cells
Method: as §1, §2, §3, §4

[5] = test system: H661 lung cell line; assay: as above; type: cell-based, human; details: H661 cells
Method: as §1, §2, §3, §4

[6] = test system: NCI-H596 lung cell line; assay: as above; type: cell-based, human; details: NCI-H596 cells
Method: as §1, §2, §3, §4

[7] = test system: H441 lung cell line; assay: as above; type: cell-based, human; details: H441 cells
Method: as §1, §2, §3, §4

[8] = test system: H522 lung cell line; assay: as above; type: cell-based, human; details: H522 cells
Method: as §1, §2, §3, §4

[9] = test system: SW1271 lung cell line; assay: as above; type: cell-based, human; details: SW1271 cells
Method: as §1, §2, §3, §4

[10] = test system: SW900 lung cell line; assay: as above; type: cell-based, human; details: SW900 cells
Method: as §1, §2, §3, §4

[11] = test system: H2347 lung cell line; assay: as above; type: cell-based, human; details: H2347 cells, 72 hours, mean of 4 tests, read-out: Mean IC50 (uM) to BMS-A
Method: as §1, §2, §3, §4

[12] = test system: H1155 lung cell line; assay: as above; type: cell-based, human; details: H1155 cells, 72 hours, mean of 3 tests, read-out: Mean IC50 (uM) to BMS-A
Method: as §1, §2, §3, §4

[13] = test system: H23 lung cell line; assay: as above; type: cell-based, human; details: H23 cells, 72 hours, mean of 4 tests, read-out: Mean IC50 (uM) to BMS-A
Method: as §1, §2, §3, §4

[14] = test system: panel of twenty-three human lung cell lines; assay: In vitro cytotoxicity assay (MTS), whole panel; type: cell-based; details: across the 23 lung cell lines
Method: as §1, §2, §3, §4

[15] = test system: A549 cells; assay: Drug (BMS-A) treatment of A549 cells and expression profiling (HG-U133 arrays); type: cell-based, human; details: A549, 0.4 μM, 4 and 24 hours
Method: To identify polynucleotides regulated by a protein tyrosine kinase inhibitor compound, e.g., BMS-A, a lung cell line A549 was treated with or without the BMS-A compound (0.4 μM) in 0.1% DMSO for 4 and 24 hours. Expression profiling was performed, and the data were analyzed using GeneChip® Expression Analysis software MAS 5.0 (Affymetrix, Santa Clara, Calif.). The polynucleotide expression of a cell line treated with drug was compared using pair-wise analysis to the polynucleotide expression of the cell line without drug treatment. A change in p-value was calculated, indicating an increase, decrease or no change in polynucleotide expression. When the p-value was less than 0.0025, the change was considered significant. Duplicated experiments were performed, and analysis of 4 cross comparisons were performed.
The lung cells were grown under standard cell culture conditions: RPMI 1640 supplemented to contain 10% fetal bovine serum, 100 IU/ml penicillin, […] streptomycin, 2 mM L-glutamine and 10 mM Hepes (all from GibcoBRL, Rockville, Md.). RNA was isolated from the cultured cells, either treated or untreated with drug (i.e., the protein tyrosine kinase inhibitor compound) at 50-70% confluence using the RNeasy™ kits commercially available from Qiagen, Valencia, Calif. The quality of the RNA was assessed by measuring the 28s:18s ribosomal RNA ratio using an Agilent 2100 bioanalyzer (Agilent Technologies, Rockville, Md.). The concentration of total RNA was determined spectrophotometrically. 10 μg of total RNA from each cell line was used to prepare biotinylated probe according to the Affymetrix Genechip® Expression Analysis Technical Manual, 2001. Targets were hybridized to Affymetrix high density oligonucleotide array human HG-U133 set chips (Affymetrix, Santa Clara, Calif.). The arrays were then washed and stained using the GeneChip® Fluidics station according to the manufacture's instructions (Affymetrix Genechip® Technical Manual, 2001). The HG-U133 set contains 2 Genechip® arrays, which contain approximately 45,000 probe sets representing more than 39,000 transcripts derived from approximately 33,000 well-substantiated human polynucleotides.
A549 cells were seeded in a 10 cm^2 culture plate in cell culture medium as described herein and were cultured for 24 hours at 37° C. The medium was then changed to medium containing drug (0.4 μM BMS-A compound in 0.1% DMSO, Sigma); the cells were incubated for 4 hour or 24 hours, and then lysed for RNA isolation. The expression profiling was performed as described above and data were analyzed using GeneChip® Expression Analysis software MAS 5.0 (Affymetrix, Santa Clara, Calif.). The expression data of a drug treated cell line was compared pair-wise to data from the same cell line untreated with drug. A change in p-value was calculated, indicating an increase, decrease or no change in polynucleotide expression. When the p-value was less than 0.0025, the change was considered to be significant. This analysis was performed for duplicated experiments

[16] = test system: SK-MES-1 lung cell line; assay: In vitro cytotoxicity assay (MTS), IC50 determination; details: SK-MES-1 cells
Method: as §1, §2, §3, §4

[17] = MTS, 72 hours, mean of 4 tests, read-out: Mean IC50 (uM) to BMS-A
[18] = IC50 relative to mean IC50 of all 23 cell lines
[19] = MTS, 72 hours, mean of 3 tests, read-out: Mean IC50 (uM) to BMS-A
[20] = MTS, 72 hours, mean of 2 tests, read-out: Mean IC50 (uM) to BMS-A

With Cc1nc(Nc2ncc(C(=O)Nc3c(C)cccc3Cl)s2)cc(N2CCN(CCO)CC2)n1 [BMS-A, N-(2-chloro-6-methylphenyl)-2-[[6-[4-(2-hydroxyethyl)-1-piperazinyl]-2-methyl-4-pyrimidinyl]amino]-5-thiazolecarboxamide] the IC50 [1, 17] was 0.014 µM, the Classification [1, 18] was “Sensitive (cell lines having an IC50 below the mean IC50 were defined as sensitive to the compound)” and the IC50 [2, 17] was 0.037 µM. For the same molecule, the Classification [2, 18] was “Sensitive (cell lines having an IC50 below the mean IC50 were defined as sensitive to the compound)”, the IC50 [3, 19] was 0.058 µM and the Classification [3, 18] was “Sensitive (cell lines having an IC50 below the mean IC50 were defined as sensitive to the compound)”. For the same molecule, the IC50 [4, 17] was 0.072 µM, the Classification [4, 18] was “Sensitive (cell lines having an IC50 below the mean IC50 were defined as sensitive to the compound)” and the IC50 [5, 17] was 0.123 µM. The Classification [5, 18] was “Sensitive (cell lines having an IC50 below the mean IC50 were defined as sensitive to the compound)”, the IC50 [6, 20] was 0.124 µM and the Classification [6, 18] was “Sensitive (cell lines having an IC50 below the mean IC50 were defined as sensitive to the compound)”. For the same molecule, the IC50 [7, 17] was 0.141 µM, the Classification [7, 18] was “Sensitive (cell lines having an IC50 below the mean IC50 were defined as sensitive to the compound)” and the IC50 [8, 19] was 0.215 µM. For the same molecule, the Classification [8, 18] was “Sensitive (cell lines having an IC50 below the mean IC50 were defined as sensitive to the compound)”, the IC50 [9, 20] was 0.242 µM and the Classification [9, 18] was “Sensitive (cell lines having an IC50 below the mean IC50 were defined as sensitive to the compound)”. The IC50 [10, 19] was 0.507 µM, the Classification [10, 18] was “Sensitive (cell lines having an IC50 below the mean IC50 were defined as sensitive to the compound)” and the IC50 [11] was no less than 1.02 µM. The IC50 [12] was no less than 1.02 µM, the IC50 [13] was no less than 1.02 µM and the “variation in the IC50 values among the twenty-three lung cell lines” value [14] was greater than 100 fold. For the same molecule, the “Modulated by BMS-A” value ([15]; Gene No. 12 peroxisomal biogenesis factor 6 (NM_000287)) was “Yes”, the “Modulated by BMS-A” value ([15]; Gene No. 24 cysteine-rich, angiogenic inducer, 61 (NM_001554)) was “Yes” and the “Modulated by BMS-A” value ([15]; Gene No. 26 fibroblast growth factor 2 (basic) (NM_002006)) was “Yes”. For the same molecule, the “Modulated by BMS-A” value ([15]; Gene No. 35 polymerase I and transcript release factor (NM_012232)) was “Yes”, the “Modulated by BMS-A” value ([15]; Gene No. 39 ESTs, Weakly similar to hypothetical protein FLJ20489 (AI004009)) was “Yes” and the “Modulated by BMS-A” value ([15]; Gene No. 45 Rho GDP dissociation inhibitor (GDI) beta (NM_001175)) was “Yes”. The “Modulated by BMS-A” value ([15]; Gene No. 47 FOS-like antigen 1 (NM_005438)) was “Yes”, the “Modulated by BMS-A” value ([15]; Gene No. 58 collagen, type VI, alpha 1 (NM_001848)) was “Yes” and the “Modulated by BMS-A” value ([15]; Gene No. 64 KIAA1237 protein (AI148659)) was “Yes”. For the same molecule, the “Modulated by BMS-A” value ([15]; Gene No. 69 a disintegrin-like and metalloprotease (reprolysin type) with thrombospondin type 1 motif, 1 (NM_006988)) was “Yes”, the “Modulated by BMS-A” value ([15]; Gene No. 72 serum-inducible kinase (NM_006622)) was “Yes” and the “Modulated by BMS-A” value ([15]; Gene No. 90 hypothetical protein FLJ20607 (NM_017899)) was “Yes”. The “Modulated by BMS-A” value ([15]; Gene No. 98 germ cell specific Y-box binding protein (NM_015982)) was “Yes”, the “Modulated by BMS-A” value ([15]; Gene No. 105 J domain containing protein 1 (NM_021800)) was “Yes” and the “Modulated by BMS-A” value ([15]; Gene No. 110 inhibitor of DNA binding 2, dominant negative helix-loop-helix protein (NM_002166)) was “Yes”. The “Modulated by BMS-A” value ([15]; Gene No. 115 neuronal cell adhesion molecule (NM_005010)) was “Yes”, the Classification [16, 18] was “Sensitive (cell lines having an IC50 below the mean IC50 were defined as sensitive to the compound)” and the IC50 ([16]; read-out: Mean IC50 (uM) to BMS-A, MTS, 72 hours, mean of 3 tests) was 0.151 µM.
